The text below walks through data of patent publication US11708351B2 (Achillion Pharmaceuticals, Inc., priority 2017, dated 2023).

Where two headings read alike, the source gives them in different places.

For this test, the target named is Human Factor D (Homo sapiens (Human), UniProt P00746). Kind of test: Human Factor D Assay. The class given is biochemical. As to the method:
Human Factor D (purified from human serum, Complement Technology, Inc.) at 80 nM final concentration is incubated with test compound at various concentrations for 5 min at room temperature in 50 mM Tris, 1M NaCl, pH 7.5. A synthetic substrate Z-L-Lys-SBzl and DTNB (Ellman's reagent) are added to final concentrations of 100 μM each. Absorbance at 405 nm (A405) is recorded at 30 second intervals for 30 min using a microplate spectrophotometer. IC50 values are calculated by nonlinear regression of complement Factor D reaction rates as a function of test compound concentration.

Setting [1] is: Table 6, Factor D 80 nM, substrate Z-L-Lys-SBzl, read-out: IC50.
Where [2] appears, read: Factor D inhibition, assay of Example 10, read-out: IC50 (Stars).
[3] abbreviates: Table 8, Factor D 80 nM, substrate Z-L-Lys-SBzl, read-out: IC50.

Sequence of Human Factor D (P00746 26-253): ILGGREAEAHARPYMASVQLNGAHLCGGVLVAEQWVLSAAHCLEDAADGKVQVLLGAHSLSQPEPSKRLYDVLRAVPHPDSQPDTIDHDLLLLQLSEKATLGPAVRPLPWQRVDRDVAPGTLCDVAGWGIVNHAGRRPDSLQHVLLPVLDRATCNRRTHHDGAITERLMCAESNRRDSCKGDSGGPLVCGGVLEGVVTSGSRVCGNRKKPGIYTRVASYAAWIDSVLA

In general, IC50 refers to the concentration needed to halve the response being measured. With `CC(=O)c1nn(CC(=O)N2C[C@H]3C[C@H]3[C@H]2C(=O)N2C[C@H]3C[C@H]3[C@H]2C(=O)Nc2nc(Br)ccc2C)c2c(C)cc(-c3cnc(C)nc3)cc12` [Compound 92, (1R,2S,5S)-3-((1R,2S,5S)-3-(2-(3-acetyl-7-methyl-5-(2-methylpyrimidin-5-yl)-1H-indazol-1-yl)acetyl)-3-azabicyclo[3.1.0]hexane-2-carbonyl)-N-(6-bromo-3-methylpyridin-2-yl)-3-azabicyclo[3.1.0] hexane-2-carboxamide], under setting [1], the concentration for half-maximal inhibition (IC50) was in the range of 1000 to 10000 nM.

In the case of `CC(=O)c1nn(CC(=O)N2[C@H](C(=O)O)C[C@@]3(C)C[C@@H]23)c2c(C)cc(-c3cnc(C)nc3)cc12` [Compound 126, (1R,3S,5R)-2-(2-(3-acetyl-7-methyl-5-(2-methylpyrimidin-5-yl)-1H-indazol-1-yl)acetyl)-5-methyl-2-azabicyclo[3.1.0] hexane-3-carboxylic acid], the IC50 under setting [1] is greater than 10000 nM. For `CC(=O)c1nn(CC(=O)N2[C@H](C(=O)Nc3nc(Br)ccc3C)C[C@@]3(C)C[C@@H]23)c2c(CN(C)C)cc(-c3cnc(C)nc3)cc12` [Compound 167, (1R,3S,5R)-2-(2-(3-Acetyl-7-((dimethylamino)methyl)-5-(2-methylpyrimidin-5-yl)-1H-indazol-1-yl)acetyl)-N-(6-bromo-3-methylpyridin-2-yl)-5-methyl-2-azabicyclo[3.1.0]hexane-3-carboxamide], the IC50 under setting [1] is less than 1000 nM. Consider `CC(=O)c1c2cc(-c3cnc(C)nc3)cc(C(F)(F)F)c2nn1CC(=O)N1[C@H](C(=O)Nc2nc(Br)ccc2C)C[C@@]2(C)C[C@@H]12` [Compound 217, (1R,3S,5R)-2-(2-(3-acetyl-5-(2-methylpyrimidin-5-yl)-7-(trifluoromethyl)-2H-indazol-2-yl)acetyl)-N-(6-bromo-3-methylpyridin-2-yl)-5-methyl-2-azabicyclo[3.1.0] hexane-3-carboxamide], for which, under setting [1], the IC50 was greater than 10000 nM. Turning to `CC(=O)c1nn(CC(=O)N2[C@H](C(=O)Nc3nc(Br)c(F)cc3C)C[C@@]3(CN(CCO)CCO)C[C@@H]23)c2cnc(-c3cnc(C)nc3)cc12` [Compound 248, (1R,3S,5R)-2-(2-(3-acetyl-5-(2-methylpyrimidin-5-yl)-1H-pyrazolo[3,4-c]pyridin-1-yl)acetyl)-5-((bis(2-hydroxy-ethyl)amino)methyl)-N-(6-bromo-5-fluoro-3-methylpyridin-2-yl)-2-azabicyclo[3.1.0]hexane-3-carboxamide], under setting [2], the IC50 is less than 1000 nM. On to `CC(=O)c1nn(CC(=O)N2[C@H](C(=O)Nc3nc(Br)c(F)cc3C)C[C@@]3(CC#N)C[C@@H]23)c2cnc(-c3cnc(C)nc3)cc12` [Compound 249, (1R,3S,5R)-2-(2-(3-acetyl-5-(2-methylpyrimidin-5-yl)-1H-pyrazolo[3,4-c]pyridin-1-yl)acetyl)-N-(6-bromo-5-fluoro-3-methylpyridin-2-yl)-5-(cyanomethyl)-2-azabicyclo[3.1.0]hexane-3-carboxamide], for which the IC50 under setting [2] was less than 1000 nM.

Take `COCc1ncc(-c2ccc3c(c2)c(C(C)=O)nn3CC(=O)N2[C@H](C(=O)Nc3nc(Br)ccc3C)C[C@@]3(C)C[C@@H]23)cn1` [Compound 278, (1R,3S,5R)-2-(2-(3-acetyl-5-(2-(methoxymethyl)py-rimidin-5-yl)-1H-indazol-1-yl)acetyl)-N-(6-bromo-3-methylpyridin-2-yl)-5-methyl-2-azabicyclo[3.1.0]hexane-3-carboxamide]: the IC50 under setting [2] was less than 1000 nM. `CC(=O)c1nn(CC(=O)N2[C@H](C(=O)Nc3nc(Br)ccc3COCCF)C[C@@]3(C)C[C@@H]23)c2ccc(-c3cnc(C)nc3)cc12` [Compound 301, (1R,3S,5R)-2-(2-(3-acetyl-5-(2-methylpyrimidin-5-yl)-1H-indazol-1-yl)acetyl)-N-(6-bromo-3-((2-fluoro-ethoxy)methyl)pyridin-2-yl)-5-methyl-2-azabicyclo[3.1.0]hexane-3-carboxamide]: the IC50 under setting [2] is less than 1000 nM.

On to `CC(=O)c1nn(CC(=O)N2[C@H](C(=O)Nc3nc(Br)ccc3C)C[C@@]3(C)C[C@@H]23)c2cnc(-c3cnc(C)cn3)cc12` [Compound 303], for which the half-inhibitory concentration (IC50) under setting [2] was less than 1000 nM. Regarding `CC(=O)c1nn(CC(=O)N(C(=O)[C@@H]2C[C@@]3(C)C[C@H]3N2)c2cccc(Br)n2)c2cnc(-c3cnc(C)nc3)cc12` [Compound 334, (1R,3S,5R)-2-(2-(3-acetyl-5-(2-methylpyrimidin-5-yl)-1H-pyrazolo[3,4-c]pyridin-1-yl)acetyl)-N-(6-bromopyridin-2-yl)-5-methyl-2-azabicyclo[3.1.0]hexane-3-carboxamide], the IC50 under setting [2] is less than 1000 nM. In the case of `CC(=O)c1nn(CC(=O)N2[C@H](C(=O)Nc3nc(Br)ccc3C)C[C@@]3(CNC(=O)COCCOCCNC(=O)COCCOCCNC(=O)CC[C@H](NC(=O)CCCCCCCCCCCCCCCCC(=O)O)C(=O)O)C[C@@H]23)c2ccc(-c3cnc(C)nc3)cc12` [Compound 379, (S)-1-((1R,3S,5R)-2-(2-(3-acetyl-5-(2-methylpyrimidin-5-yl)-1H-indazol-1-yl)acetyl)-3-((6-bromo-3-methylpyridin-2-yl)carbamoyl)-2-azabicyclo[3.1.0]hexan-5-yl)-24-carboxy-3,12,21,26-tetraoxo-5,8,14,17-tetraoxa-2,11,20,25-tetraazatritetracontan-43-oic acid], under setting [3], the IC50 was less than 1000 nM.

For the compound `COC(=O)CCCCCCCCCCCCCCCCC(=O)N[C@@H](CCC(=O)NCCOCCOCC(=O)NCCOCCOCC(=O)NCc1ncc(-c2cc(C)c3c(c2)c(C(C)=O)nn3CC(=O)N2[C@H](C(=O)Nc3nc(Br)ccc3C)C[C@@]3(C)C[C@@H]23)cn1)C(=O)OC` [Compound 403, (S)-methyl 1-(5-(3-acetyl-1-(2-((1R,3S,5R)-3-((6-bromo-3-methylpyridin-2-yl)carbamoyl)-5-methyl-2-azabicyclo[3.1.0]hexan-2-yl)-2-oxoethyl)-7-methyl-1H-indazol-5-yl)pyrimidin-2-yl)-24-(methoxycarbonyl)-3,12,21,26-tetraoxo-5,8,14,17-tetraoxa-2,11,20,25-tetraazatritetracontan-43-oate], under setting [3], the IC50 was less than 1000 nM. Consider `CC(=O)c1nn(CC(=O)N2[C@H](C(=O)Nc3cc(-c4ccccc4O)cc(Br)n3)C[C@@]3(C)C[C@@H]23)c2ccc(-c3cnc(C)nc3)cc12` [Compound 556, (1R,3S,5R)-2-(2-(3-acetyl-5-(2-methylpyrimidin-5-yl)-1H-indazol-1-yl)acetyl)-N-(6-bromo-4-(2-hydroxyphenyl)pyridin-2-yl)-5-methyl-2-azabicyclo[3.1.0]hexane-3-carboxamide], for which the IC50 (Table 7, Factor D inhibition, assay of Example 10, read-out: IC50 (Stars)) is less than 1000 nM.

As to “(3S)-5-(3-Azabicyclo[3.1.1]heptan-3-ylmethyl)-2-(2-(3-acetyl-5-(2-methylpyrimidin-5-yl)-1H-indazol-1-yl)acetyl)-N-(6-bromo-3-methylpyridin-2-yl)-2-azabicyclo[3.1.0]hexane-3-carboxamide [Compound 13]”, under setting [1], the IC50 is less than 1000 nM.
